Tests used:
[1] = target: T1, DTX2 (Homo sapiens, UniProt Q86UW9); assay: In vitro ubiquitylation of NAD+ ([…]) by purified DTX2 and E2~Ub, silver-stained gel; assay type: biochemical
T1 construct: RING-DTC domain, residues 389–622; with UBE2D3~Ub conjugate

[2] = target: T2, PARP10 (Homo sapiens, UniProt Q53GL7); assay: Dose-response inhibition of GFP-PARP10 auto-MARylation in HEK […] cells, western blot; assay type: cell-based
T2 construct: GFP-PARP10, doxycycline-inducible in HEK 293 cells
T2 sequence (Q53GL7 1-1025): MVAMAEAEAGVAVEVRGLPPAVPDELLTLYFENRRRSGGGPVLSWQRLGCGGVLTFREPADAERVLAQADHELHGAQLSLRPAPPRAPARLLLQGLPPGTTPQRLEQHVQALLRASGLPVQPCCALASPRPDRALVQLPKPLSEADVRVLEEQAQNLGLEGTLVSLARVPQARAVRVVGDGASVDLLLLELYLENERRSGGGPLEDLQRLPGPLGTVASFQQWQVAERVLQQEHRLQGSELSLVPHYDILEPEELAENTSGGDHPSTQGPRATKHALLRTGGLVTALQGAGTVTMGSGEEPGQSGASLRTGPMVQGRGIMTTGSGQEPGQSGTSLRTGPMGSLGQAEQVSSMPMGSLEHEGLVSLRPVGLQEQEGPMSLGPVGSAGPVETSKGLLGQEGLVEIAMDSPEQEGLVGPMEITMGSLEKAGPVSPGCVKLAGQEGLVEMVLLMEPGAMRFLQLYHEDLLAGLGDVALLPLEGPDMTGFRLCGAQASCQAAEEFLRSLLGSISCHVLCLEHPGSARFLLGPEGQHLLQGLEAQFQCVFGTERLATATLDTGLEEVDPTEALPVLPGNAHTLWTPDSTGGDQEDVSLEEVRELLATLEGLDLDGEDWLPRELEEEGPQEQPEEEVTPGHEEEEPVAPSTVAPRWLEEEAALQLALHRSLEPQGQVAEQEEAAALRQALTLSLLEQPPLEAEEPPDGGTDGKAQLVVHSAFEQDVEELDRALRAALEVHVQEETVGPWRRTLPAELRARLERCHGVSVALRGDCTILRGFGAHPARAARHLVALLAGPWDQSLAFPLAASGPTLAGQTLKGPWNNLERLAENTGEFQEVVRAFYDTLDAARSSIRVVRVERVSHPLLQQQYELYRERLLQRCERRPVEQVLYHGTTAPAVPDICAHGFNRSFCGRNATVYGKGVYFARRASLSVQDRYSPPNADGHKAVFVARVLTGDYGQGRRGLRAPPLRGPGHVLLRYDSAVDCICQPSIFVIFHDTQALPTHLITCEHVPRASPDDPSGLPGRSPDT

T1 sequence (Q86UW9 389-622): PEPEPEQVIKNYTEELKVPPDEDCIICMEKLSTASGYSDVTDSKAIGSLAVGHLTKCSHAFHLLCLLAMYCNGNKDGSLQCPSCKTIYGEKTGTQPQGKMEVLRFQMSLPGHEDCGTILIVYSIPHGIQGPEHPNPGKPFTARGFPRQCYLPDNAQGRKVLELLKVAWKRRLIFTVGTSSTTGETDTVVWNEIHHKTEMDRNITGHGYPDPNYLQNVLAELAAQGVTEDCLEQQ
T1 sequence (P61077 whole entry partner, the tested form may be a part): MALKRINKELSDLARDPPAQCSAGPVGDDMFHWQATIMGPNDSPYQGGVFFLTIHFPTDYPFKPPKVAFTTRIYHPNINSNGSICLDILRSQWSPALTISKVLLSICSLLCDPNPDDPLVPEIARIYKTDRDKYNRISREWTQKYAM

| Molecule | In vitro ubiquitylation of NAD+ (0.2 mM) by purified DTX2 and E2~Ub, silver-stai [1] | IC50 [2] [nM] |
| --- | --- | --- |
| NC(=O)c1ccc[n+]([C@@H]2O[C@H](COP(=O)([O-])OP(=O)(O)OC[C@H]3O[C@@H](n4cnc5c(N)ncnc54)[C@H](O)[C@@H]3O)[C@@H](O)[C@H]2O)c1 [NAD^+] | DTX2 could readily conjugate Ub to NAD^+ and ADPr to form Ub ester-linked NAD^+ (NAD^+-Ube) | – |
| RBN010860 | – | 51.4 |

— article PMC12000418, “Ubiquitin is directly linked via an ester to protein-conjugated mono-ADP-ribose” (The EMBO Journal, 2025)
